The OligoGym collection
Where “and” joins values, the source holds several entries; their conditions need not be identical. Identical values can stand only once. HELM strings list units from the 5' end as sugar, base in round brackets, then linkage (d deoxyribose, r ribose, m 2'-O-methyl, p phosphodiester). Methylation of C is not given here. [moe] = 2'-O-(2-methoxyethyl) (MOE); [cEt] = constrained ethyl (cEt); [sp] = phosphorothioate linkage

Molecular target: HBV
Details: ASO

Substance: RNA1{[moe](G)[sp].[moe](A)[sp].d(T)[sp].d(G)[sp].d(A)[sp].d(G)[sp].d(G)[sp].d(C)[sp].d(A)[sp].d(T)[sp].d(A)[sp].[moe](G)[sp].[moe](C)[sp].[moe](A)[sp].[moe](G)[sp].[moe](C)}$$$$V2.0
- target mRNA inhibition (HepG2, 0.07 µM): 57% and 33%

Substance: RNA1{[moe](G)[sp].[moe](C)[sp].[moe](A)[sp].[moe](G)[sp].[moe](A)[sp].d(G)[sp].d(G)[sp].d(T)[sp].d(G)[sp].d(A)[sp].d(A)[sp].d(G)[sp].d(C)[sp].d(G)[sp].[moe](A)[sp].[moe](A)}$$$$V2.0
- target mRNA inhibition (HepG2, 0.07 µM): 63% and 58%

Substance: RNA1{[moe](G)[sp].[moe](C)[sp].[moe](A)[sp].[moe](G)[sp].d(A)[sp].d(G)[sp].d(G)[sp].d(T)[sp].d(G)[sp].d(A)[sp].d(A)[sp].d(G)[sp].d(C)[sp].[moe](G)[sp].[moe](A)[sp].[moe](A)}$$$$V2.0
- target mRNA inhibition (HepG2, 0.07 µM): 60%

Substance: RNA1{[moe](G)[sp].[moe](C)[sp].[moe](A)[sp].[moe](T)[sp].d(A)[sp].d(G)[sp].d(C)[sp].d(A)[sp].d(G)[sp].d(C)[sp].d(A)[sp].d(G)[sp].d(G)[sp].[moe](A)[sp].[moe](T)[sp].[moe](G)}$$$$V2.0
- target mRNA inhibition (HepG2, 0.07 µM): 44% and 56%

Substance: RNA1{[moe](G)[sp].[moe](C)[sp].[moe](A)[sp].d(C)[sp].d(T)[sp].d(A)[sp].d(G)[sp].d(T)[sp].d(A)[sp].d(A)[sp].d(A)[sp].d(C)[sp].[moe](T)[sp].[moe](G)[sp].[moe](A)[sp].[moe](G)[sp].[moe](C)}$$$$V2.0
- target mRNA inhibition (HepG2, 0.07 µM): 74% and 68%

Substance: RNA1{[moe](G)[sp].[moe](C)[sp].[moe](A)[sp].d(G)[sp].d(A)[sp].d(G)[sp].d(G)[sp].d(T)[sp].d(G)[sp].d(A)[sp].d(A)[sp].d(G)[sp].[moe](C)[sp].[moe](G)[sp].[moe](A)[sp].[moe](A)[sp].[moe](G)}$$$$V2.0
- target mRNA inhibition (HepG2, 0.07 µM): 75% and 66%

Substance: RNA1{[moe](G)[sp].[moe](C)[sp].[moe](A)[sp].d(G)[sp].d(T)[sp].d(A)[sp].d(T)[sp].d(G)[sp].d(G)[sp].d(A)[sp].d(T)[sp].d(C)[sp].d(G)[sp].[cEt](G)[sp].[cEt](C)[sp].[cEt](A)}$$$$V2.0
- target mRNA inhibition (HepG2, 0.0092593 µM): 4%
- target mRNA inhibition (HepG2, 0.0277778 µM): 36%
- target mRNA inhibition (HepG2, 0.07 µM): 74% and 85%
- target mRNA inhibition (HepG2, 0.0833333 µM): 58%
- target mRNA inhibition (HepG2, 0.25 µM): 84%

Substance: RNA1{[moe](G)[sp].[moe](C)[sp].[moe](A)[sp].d(T)[sp].d(A)[sp].d(G)[sp].d(C)[sp].d(A)[sp].d(G)[sp].d(C)[sp].d(A)[sp].d(G)[sp].[moe](G)[sp].[moe](A)[sp].[moe](T)[sp].[moe](G)}$$$$V2.0
- target mRNA inhibition (HepG2, 0.07 µM): 60% and 53%

Substance: RNA1{[moe](G)[sp].[moe](C)[sp].[moe](A)[sp].d(T)[sp].d(A)[sp].d(G)[sp].d(C)[sp].d(A)[sp].d(G)[sp].d(C)[sp].d(A)[sp].d(G)[sp].d(G)[sp].[cEt](A)[sp].[cEt](T)[sp].[cEt](G)}$$$$V2.0
- target mRNA inhibition (HepG2, 0.07 µM): 67% and 76%

Substance: RNA1{[moe](G)[sp].[moe](G)[sp].[moe](A)[sp].d(G)[sp].d(T)[sp].d(T)[sp].d(C)[sp].d(C)[sp].d(G)[sp].d(C)[sp].d(A)[sp].d(G)[sp].d(T)[sp].[cEt](A)[sp].[cEt](T)[sp].[cEt](G)}$$$$V2.0
- target mRNA inhibition (HepG2, 0.0092593 µM): 0%
- target mRNA inhibition (HepG2, 0.0277778 µM): 25%
- target mRNA inhibition (HepG2, 0.07 µM): 74% and 82%
- target mRNA inhibition (HepG2, 0.0833333 µM): 53%
- target mRNA inhibition (HepG2, 0.25 µM): 72%

Substance: RNA1{[moe](G)[sp].[moe](G)[sp].[moe](C)[sp].d(A)[sp].d(T)[sp].d(A)[sp].d(G)[sp].d(C)[sp].d(A)[sp].d(G)[sp].d(C)[sp].d(A)[sp].d(G)[sp].[moe](G)[sp].[moe](A)[sp].[moe](T)[sp].[moe](G)}$$$$V2.0
- target mRNA inhibition (HepG2, 0.0092593 µM): 11%
- target mRNA inhibition (HepG2, 0.009375 µM): 42%
- target mRNA inhibition (HepG2, 0.01875 µM): 30%
- target mRNA inhibition (HepG2, 0.0277778 µM): 28%
- target mRNA inhibition (HepG2, 0.0375 µM): 43%
- target mRNA inhibition (HepG2, 0.075 µM): 61%
- target mRNA inhibition (HepG2, 0.0833333 µM): 60%
- target mRNA inhibition (HepG2, 0.15 µM): 77%
- target mRNA inhibition (HepG2, 0.25 µM): 77%
- target mRNA inhibition (HepG2, 0.3 µM): 91%

Substance: RNA1{[moe](G)[sp].[moe](G)[sp].[moe](T)[sp].[moe](G)[sp].[moe](A)[sp].[moe](A)[sp].d(G)[sp].d(C)[sp].d(G)[sp].d(A)[sp].d(A)[sp].d(G)[sp].d(T)[sp].d(G)[sp].d(C)[sp].[moe](A)[sp].[moe](C)}$$$$V2.0
- target mRNA inhibition (HepG2, 0.07 µM): 85% and 67%

Substance: RNA1{[moe](G)[sp].[moe](T)[sp].[moe](G)[sp].[moe](A)[sp].d(A)[sp].d(G)[sp].d(C)[sp].d(G)[sp].d(A)[sp].d(A)[sp].d(G)[sp].d(T)[sp].d(G)[sp].[moe](C)[sp].[moe](A)[sp].[moe](C)}$$$$V2.0
- target mRNA inhibition (HepG2, 0.07 µM): 62% and 71%

Substance: RNA1{[moe](G)[sp].[moe](T)[sp].[moe](G)[sp].[moe](C)[sp].[moe](A)[sp].d(G)[sp].d(A)[sp].d(G)[sp].d(G)[sp].d(T)[sp].d(G)[sp].d(A)[sp].d(A)[sp].d(G)[sp].[moe](C)[sp].[moe](G)[sp].[moe](A)}$$$$V2.0
- target mRNA inhibition (HepG2, 0.07 µM): 68% and 62%

Substance: RNA1{[moe](G)[sp].[moe](T)[sp].[moe](G)[sp].[moe](C)[sp].[moe](A)[sp].d(G)[sp].d(A)[sp].d(G)[sp].d(G)[sp].d(T)[sp].d(G)[sp].d(A)[sp].d(A)[sp].d(G)[sp].[moe](C)[sp].[moe](G)}$$$$V2.0
- target mRNA inhibition (HepG2, 0.07 µM): 57% and 51%

Substance: RNA1{[moe](G)[sp].[moe](T)[sp].[moe](G)[sp].d(A)[sp].d(A)[sp].d(G)[sp].d(C)[sp].d(G)[sp].d(A)[sp].d(A)[sp].d(G)[sp].d(T)[sp].[moe](G)[sp].[moe](C)[sp].[moe](A)[sp].[moe](C)[sp].[moe](A)}$$$$V2.0
- target mRNA inhibition (HepG2, 0.07 µM): 71% and 63%

Substance: RNA1{[moe](G)[sp].[moe](T)[sp].[moe](G)[sp].d(C)[sp].d(A)[sp].d(G)[sp].d(A)[sp].d(G)[sp].d(G)[sp].d(T)[sp].d(G)[sp].d(A)[sp].[moe](A)[sp].[moe](G)[sp].[moe](C)[sp].[moe](G)[sp].[moe](A)}$$$$V2.0
- target mRNA inhibition (HepG2, 0.07 µM): 67% and 62%

Substance: RNA1{[moe](G)[sp].[moe](T)[sp].[moe](T)[sp].[moe](C)[sp].[moe](C)[sp].d(G)[sp].d(C)[sp].d(A)[sp].d(G)[sp].d(T)[sp].d(A)[sp].d(T)[sp].d(G)[sp].d(G)[sp].[moe](A)[sp].[moe](T)}$$$$V2.0
- target mRNA inhibition (HepG2, 0.07 µM): 54% and 51%

Substance: RNA1{[moe](G)[sp].[moe](T)[sp].[moe](T)[sp].d(C)[sp].d(C)[sp].d(G)[sp].d(C)[sp].d(A)[sp].d(G)[sp].d(T)[sp].d(A)[sp].d(T)[sp].[moe](G)[sp].[moe](G)[sp].[moe](A)[sp].[moe](T)[sp].[moe](C)}$$$$V2.0
- target mRNA inhibition (HepG2, 0.07 µM): 60% and 54%

Substance: RNA1{[moe](G)[sp].[moe](T)[sp].[moe](T)[sp].d(C)[sp].d(C)[sp].d(G)[sp].d(C)[sp].d(A)[sp].d(G)[sp].d(T)[sp].d(A)[sp].d(T)[sp].[moe](G)[sp].[moe](G)[sp].[moe](A)[sp].[moe](T)}$$$$V2.0
- target mRNA inhibition (HepG2, 0.07 µM): 51% and 65%

Substance: RNA1{[moe](G)[sp].[moe](T)[sp].[moe](T)[sp].d(C)[sp].d(C)[sp].d(G)[sp].d(C)[sp].d(A)[sp].d(G)[sp].d(T)[sp].d(A)[sp].d(T)[sp].d(G)[sp].[cEt](G)[sp].[cEt](A)[sp].[cEt](T)}$$$$V2.0
- target mRNA inhibition (HepG2, 0.07 µM): 52% and 67%

Substance: RNA1{[moe](T)[sp].[cEt](C)[sp].[cEt](C)[sp].d(G)[sp].d(C)[sp].d(A)[sp].d(G)[sp].d(T)[sp].d(A)[sp].d(T)[sp].d(G)[sp].d(G)[sp].d(A)[sp].[cEt](T)[sp].[cEt](C)[sp].[moe](G)}$$$$V2.0
- target mRNA inhibition (HepG2, 0.07 µM): 79% and 76%

Substance: RNA1{[moe](T)[sp].[cEt](G)[sp].[cEt](A)[sp].d(A)[sp].d(C)[sp].d(A)[sp].d(A)[sp].d(A)[sp].d(T)[sp].d(G)[sp].d(G)[sp].d(C)[sp].d(A)[sp].[cEt](C)[sp].[cEt](T)[sp].[moe](A)}$$$$V2.0
- target mRNA inhibition (HepG2, 0.07 µM): 71% and 59%

Substance: RNA1{[moe](T)[sp].[cEt](G)[sp].[cEt](A)[sp].d(A)[sp].d(G)[sp].d(C)[sp].d(G)[sp].d(A)[sp].d(A)[sp].d(G)[sp].d(T)[sp].d(G)[sp].d(C)[sp].[cEt](A)[sp].[cEt](C)[sp].[moe](A)}$$$$V2.0
- target mRNA inhibition (HepG2, 0.07 µM): 69% and 77%

Substance: RNA1{[moe](T)[sp].[cEt](G)[sp].[cEt](A)[sp].d(G)[sp].d(A)[sp].d(G)[sp].d(A)[sp].d(A)[sp].d(G)[sp].d(T)[sp].d(C)[sp].d(C)[sp].d(A)[sp].[cEt](C)[sp].[cEt](C)[sp].[moe](A)}$$$$V2.0
- target mRNA inhibition (HepG2, 0.07 µM): 53% and 49%

Substance: RNA1{[moe](T)[sp].[cEt](G)[sp].[cEt](C)[sp].d(A)[sp].d(G)[sp].d(A)[sp].d(G)[sp].d(G)[sp].d(T)[sp].d(G)[sp].d(A)[sp].d(A)[sp].d(G)[sp].[cEt](C)[sp].[cEt](G)[sp].[moe](A)}$$$$V2.0
- target mRNA inhibition (HepG2, 0.07 µM): 71% and 73%

Substance: RNA1{[moe](T)[sp].[cEt](G)[sp].[cEt](G)[sp].d(A)[sp].d(G)[sp].d(C)[sp].d(C)[sp].d(A)[sp].d(C)[sp].d(C)[sp].d(A)[sp].d(G)[sp].d(C)[sp].[cEt](A)[sp].[cEt](G)[sp].[moe](G)}$$$$V2.0
- target mRNA inhibition (HepG2, 0.07 µM): 57% and 53%

Substance: RNA1{[moe](T)[sp].[cEt](G)[sp].d(C)[sp].d(A)[sp].d(G)[sp].d(A)[sp].d(G)[sp].d(G)[sp].d(T)[sp].d(G)[sp].d(A)[sp].d(A)[sp].[cEt](G)[sp].[moe](C)[sp].[cEt](G)[sp].[moe](A)}$$$$V2.0
- target mRNA inhibition (HepG2, 0.0092593 µM): 5%
- target mRNA inhibition (HepG2, 0.0277778 µM): 39%
- target mRNA inhibition (HepG2, 0.07 µM): 77% and 86%
- target mRNA inhibition (HepG2, 0.0833333 µM): 70%
- target mRNA inhibition (HepG2, 0.25 µM): 85%

Substance: RNA1{[moe](T)[sp].[cEt](G)[sp].d(G)[sp].d(A)[sp].d(G)[sp].d(C)[sp].d(C)[sp].d(A)[sp].d(C)[sp].d(C)[sp].d(A)[sp].d(G)[sp].[cEt](C)[sp].[moe](A)[sp].[cEt](G)[sp].[moe](G)}$$$$V2.0
- target mRNA inhibition (HepG2, 0.07 µM): 59% and 42%

Substance: RNA1{[moe](T)[sp].[cEt](T)[sp].[cEt](A)[sp].d(T)[sp].d(G)[sp].d(C)[sp].d(C)[sp].d(T)[sp].d(A)[sp].d(C)[sp].d(A)[sp].d(G)[sp].d(C)[sp].[cEt](C)[sp].[cEt](T)[sp].[moe](C)}$$$$V2.0
- target mRNA inhibition (HepG2, 0.07 µM): 48% and 23%
